# Laboratory results taken from article PMC9305971, “Development of [^18F]AmBF3 Tetrazine for Radiolabeling of Peptides: Preclinical Evaluation and PET Imaging of [^18F]AmBF3-PEG7-Tyr^3-Octreotide in an AR42J Pancreatic Carcinoma Model” (Bioconjugate Chemistry, 2022).
# Read-outs that look alike come from different tables or passages of the source.
# Legend:
# [1] = Dosimetry from dynamic PET, extrapolated to adult humans (OLINDA/EXM); format: in vivo, Rj:NMRI-Foxn1^nu/nu mice; settings: extrapolated to adult human
# Method: Dosimetry of [^18F]15 was calculated from the acquired PET/CT imaging data with Molecubes PET (β-CUBE) coupled with a CT (X-CUBE) (Ghent, Belgium). Regions of interest were drawn on source organs, namely, the heart, kidneys, liver, and lungs. Time–activity curves (TAC) were converted from mouse to human time −activity curves with the following equation [drawing 1] where morgan,h and WBh are the organ and whole-body weights for human, respectively. Mass morgan,m and WBm are the organ weight and the whole-body weight for mouse, respectively. Time–activity curves were normalized to 1 MBq injection, and the physical decay correction was removed. After this, the TAC’s were extrapolated into 3000 min, which corresponds in practice to infinity. Numbers of disintegrations in source organs are defined by integrating TAC from time 0 to 3000 min, and this value is input for OLINDA/EXM (version 2.1, Vanderbilt University, 2012) dosimetry software, where ICRP 89 reference adult male (73 kg) and ICRP 103 radiation weighting factors were used. Absorbed doses to each target organ are given in units mGy/MBq, and the effective dose is in units mSv/MBq.
# Table S3. Dosimetry calculations.
# Results after intravenous administration of [18F]15 from OLINDA/EXM (Version 2.1, Vanderbilt University, 2012), where ICRP 89 reference adult male (73 kg) and ICRP 103 radiation weighting factors were used. Absorbed doses to each target organ is given in units mGy/MBq and the effective dose in units mSv/MBq. The difference in radiation burden based on baseline (non-block) and blocked mice is negligible.
# Target organ Baseline Avg. Baseline Std. Blocked Avg. Blocked Std. […]
# [2] = Distribution of radioactivity in blood components after i.v. administration; format: in vivo, mice
# Method: Whole blood from mice were extracted during ex vivo studies, using cardiac puncture. The sample was applied in a microtube containing 1% heparin solution in 0.9% NaCl (aq.) (2 μL); the sample was centrifuged (1000g, 10 min), the total radioactivity in the sample was measured with a γ counter, the supernatant was separated from the pellet (RBC containing fraction), and cold ACN (500 μL) was added. The sample was centrifuged (10,000g, 5 min) to remove the free fraction from the precipitated protein-containing pellet. The pellet (protein-bound fraction) and the supernatant (free fraction) were measured with a γ counter, and a sample (100 μL) was injected into HPLC and spotted (4 μL) on a TLC plate (radio-TLC, TLC silica gel 60 F254, ACN/water 80:20).
# [3] = 60 min post injection, blocked with octreotide
compound,measurement,setting,value
C[C@@H](O)[C@@H]1NC(=O)[C@H](CCCCN)NC(=O)[C@@H](Cc2c[nH]c3ccccc23)NC(=O)[C@H](Cc2ccc(O)cc2)NC(=O)[C@@H](NC(=O)[C@@H](Cc2ccccc2)NC(=O)CCOCCOCCOCCOCCON=Cc2ccc(C(=O)NCCOCCOCCOCCNC(=O)OC3CCCc4cnnc(-c5ccc(CC(=O)NCC[N+](C)(C)C[B-](F)(F)F)cc5)c4CC3)cc2)CSSC[C@@H](C(=O)N[C@H](CO)[C@@H](C)O)NC1=O (some centres unmarked) [[^18F]15],"absorbed dose, adrenals",[1]; baseline,0.0190 ± 0.0008 mGy/MBq
same,"absorbed dose, brain",[1]; baseline,0.0102 mGy/MBq
same,"absorbed dose, esophagus",[1]; baseline,0.0129 mGy/MBq
same,"absorbed dose, eyes",[1]; baseline,0.0102 mGy/MBq
same,"absorbed dose, gallbladder wall",[1]; baseline,0.0194 ± 0.0011 mGy/MBq
same,"absorbed dose, heart wall",[1]; baseline,0.0148 mGy/MBq
same,"absorbed dose, kidneys",[1]; baseline,0.0366 ± 0.0016 mGy/MBq
same,"absorbed dose, left colon",[1]; baseline,0.0143 mGy/MBq
same,"absorbed dose, lungs",[1]; baseline,0.0109 mGy/MBq
same,"absorbed dose, osteogenic cells",[1]; baseline,0.0120 mGy/MBq
same,"absorbed dose, pancreas",[1]; baseline,0.0156 ± 0.0002 mGy/MBq
same,"absorbed dose, prostate",[1]; baseline,0.0135 mGy/MBq
same,"absorbed dose, rectum",[1]; baseline,0.0136 mGy/MBq
same,"absorbed dose, red marrow",[1]; baseline,0.0113 mGy/MBq
same,"absorbed dose, right colon",[1]; baseline,0.0151 mGy/MBq
same,"absorbed dose, salivary glands",[1]; baseline,0.0118 mGy/MBq
same,"absorbed dose, small intestine",[1]; baseline,0.0144 mGy/MBq
same,"absorbed dose, spleen",[1]; baseline,0.0137 mGy/MBq
same,"absorbed dose, stomach wall",[1]; baseline,0.0141 mGy/MBq
same,"absorbed dose, testes",[1]; baseline,0.0112 mGy/MBq
same,"absorbed dose, thymus",[1]; baseline,0.0122 mGy/MBq
same,"absorbed dose, thyroid",[1]; baseline,0.0118 mGy/MBq
same,"absorbed dose, total body",[1]; baseline,0.0121 mGy/MBq
same,"absorbed dose, urinary bladder wall",[1]; baseline,0.0134 ± 0.0003 mGy/MBq
same,effective dose,[1]; baseline,0.0112 mSv/MBq
same,"absorbed dose, adrenals","[1]; baseline, listed as [18F]15",0.0190 mGy/MBq
same,"absorbed dose, gallbladder wall","[1]; baseline, listed as [18F]15",0.0194 mGy/MBq
same,"absorbed dose, kidneys","[1]; baseline, listed as [18F]15",0.0366 mGy/MBq
same,"absorbed dose, liver","[1]; baseline, listed as [18F]15",0.0334 mGy/MBq
same,"absorbed dose, pancreas","[1]; baseline, listed as [18F]15",0.0156 mGy/MBq
same,"absorbed dose, urinary bladder wall","[1]; baseline, listed as [18F]15",0.0134 mGy/MBq
same,"absorbed dose, adrenals",[1]; blocked,0.0185 ± 0.0001 mGy/MBq
same,"absorbed dose, brain",[1]; blocked,0.0103 mGy/MBq
same,"absorbed dose, esophagus",[1]; blocked,0.0129 mGy/MBq
same,"absorbed dose, eyes",[1]; blocked,0.0103 mGy/MBq
same,"absorbed dose, gallbladder wall",[1]; blocked,0.0190 ± 0.0011 mGy/MBq
same,"absorbed dose, heart wall",[1]; blocked,0.0150 mGy/MBq
same,"absorbed dose, kidneys",[1]; blocked,0.0337 ± 0.0043 mGy/MBq
same,"absorbed dose, left colon",[1]; blocked,0.0144 mGy/MBq
same,"absorbed dose, liver",[1]; blocked,0.0313 ± 0.0040 mGy/MBq
same,"absorbed dose, lungs",[1]; blocked,0.0106 mGy/MBq
same,"absorbed dose, osteogenic cells",[1]; blocked,0.0121 mGy/MBq
same,"absorbed dose, pancreas",[1]; blocked,0.0154 ± 0.0001 mGy/MBq
same,"absorbed dose, prostate",[1]; blocked,0.0136 mGy/MBq
same,"absorbed dose, rectum",[1]; blocked,0.0137 mGy/MBq
same,"absorbed dose, red marrow",[1]; blocked,0.0114 mGy/MBq
same,"absorbed dose, right colon",[1]; blocked,0.0150 mGy/MBq
same,"absorbed dose, salivary glands",[1]; blocked,0.0119 mGy/MBq
same,"absorbed dose, small intestine",[1]; blocked,0.0145 mGy/MBq
same,"absorbed dose, spleen",[1]; blocked,0.0136 mGy/MBq
same,"absorbed dose, stomach wall",[1]; blocked,0.0141 mGy/MBq
same,"absorbed dose, testes",[1]; blocked,0.0113 mGy/MBq
same,"absorbed dose, thymus",[1]; blocked,0.0122 mGy/MBq
same,"absorbed dose, thyroid",[1]; blocked,0.0119 mGy/MBq
same,"absorbed dose, total body",[1]; blocked,0.0121 mGy/MBq
same,"absorbed dose, urinary bladder wall",[1]; blocked,0.0135 ± 0.0000 mGy/MBq
same,effective dose,[1]; blocked,0.011 mSv/MBq
same,"absorbed dose, adrenals","[1]; blocked, listed as [18F]15",0.0185 mGy/MBq
same,"absorbed dose, gallbladder wall","[1]; blocked, listed as [18F]15",0.0190 mGy/MBq
same,"absorbed dose, kidneys","[1]; blocked, listed as [18F]15",0.0337 mGy/MBq
same,"absorbed dose, liver","[1]; blocked, listed as [18F]15",0.0313 mGy/MBq
same,"absorbed dose, pancreas","[1]; blocked, listed as [18F]15",0.0154 mGy/MBq
same,"absorbed dose, urinary bladder wall","[1]; blocked, listed as [18F]15",0.0135 mGy/MBq
same,"absorbed dose, all organs",[1],below 0.04 mGy/MBq
same,"absorbed dose, all other organs apart from the kidneys and liver",[1],≤ 0.02 mGy/MBq
C[C@@H](O)[C@@H]1NC(=O)[C@H](CCCCN)NC(=O)[C@@H](Cc2c[nH]c3ccccc23)NC(=O)[C@H](Cc2ccc(O)cc2)NC(=O)[C@@H](NC(=O)[C@@H](Cc2ccccc2)NC(=O)CCOCCOCCOCCOCCON=Cc2ccc(CNC(=O)OC3CCCc4cnnc(-c5ccc(CC(=O)NCC[N+](C)(C)C[B-](F)(F)F)cc5)c4CC3)cc2)CSSC[C@@H](C(=O)N[C@H](CO)[C@@H](C)O)NC1=O (some centres unmarked) [[^18F]14],protein bound fraction,[2]; 5 min post injection,5.5%
same,radioactivity bound to red blood cells,[2]; 5 min post injection,22%
same,radioactivity bound to red blood cells,"[2]; 5 min post injection, listed as [18F]14",21.6%
same,protein bound fraction,[2]; 60 min post injection,7.00%
same,radioactivity bound to red blood cells,[2]; 60 min post injection,25%
same,protein bound fraction,[2]; [3],14.6%
same,radioactivity bound to red blood cells,[2]; [3],29.7 ± 2.9%
same,radioactivity bound to red blood cells,"[2]; 60 min post injection, blocked with octreotide, listed as [18F]14",29.7%
same,radioactivity bound to red blood cells,"[2]; 60 min post injection, listed as [18F]14",24.5%
same,fraction unbound at 5 min,"[2]; mouse, whole blood, intravenous, 5 min post injection, read-out: free fraction",0.729 ± 0.051
same,fraction unbound at 60 min,"[2]; mouse, whole blood, intravenous, 60 min post injection, blocked with octreotide, read-out: free fraction",0.557 ± 0.114
same,fraction unbound at 60 min,"[2]; mouse, whole blood, intravenous, 60 min post injection, read-out: free fraction",0.685 ± 0.053
